Data taken from US20230112418A1, “COMPOUND AND RADIOACTIVE LABELING COMPOUND” (NIHON MEDI-PHYSICS CO., LTD., priority 2020, published 2023).
Where two headings read alike, the source gives them in different places. One block for each compound: values may come before it.

Tests used:
[1] = tested on: LNCaP tumor transplanted mice; assay: Suppression of tumor growth by 90Y-labeled compound; assay type: in vivo; conditions: 3.7 MBq i.v., FIG. 8
Protocol: A saline solution (100 μL) of [^90Y]Y-PSMA-DA1 (3.7 MBq) or [^90Y]Y-PSMA-DB (3.7 MBq) obtained by the above-described method was injected into each of the LNCaP tumor transplanted mice via the tail vein thereof (n=7). As a control group, 100 μL of saline was injected into each of the LNCaP tumor transplanted mice via the tail vein thereof (n=7).
After the injection of the ^90Y-labeled compound, a tumor volume and a body weight were measured three times per week. The tumor volume was calculated based on a calculation formula “(tumor volume)=[(long side)×(short side)^2/2]”.

[2] = Distribution coefficient (1-octanol/PBS); assay type: physicochemical; conditions: log10, 1-octanol/PBS pH 7.4, n=5
Protocol: The radioactive labeled compound (740 kBq) of any one of Examples and Comparative Examples was added to a mixed liquid of PBS (3 mL, pH 7.4 (20° C.)) and 1-octanol (3 mL), and the mixture was vortexed for two minutes and then centrifuged at 4000×g for five minutes. Thereafter, 1 mL of the 1-octanol layer and 500 μL of the PBS layer were collected, and the amount of radioactivity of each of the layers was measured with a gamma counter (n=5).
As a calculation formula of a distribution coefficient, “log10 [(amount of radioactivity of 1-octanol layer)/(amount of radioactivity of PBS layer×2)]” was used. Results are illustrated in Table 1 below as mean±standard deviation (mean±SD).
[^111In]In-PtDA (111 kBq) was added to a mixed liquid of PBS (pH 7.4, 3 mL) and 1-octanol (3 mL). The mixture was dispersed by vortexing for two minutes, and then centrifuged at 4000×g for five minutes. 1 mL of the 1-octanol layer and 1 mL of the PBS layer were collected, and the radioactivity of each of the layers was measured with a gamma counter (n=3).
As a calculation formula, “(distribution coefficient)=[…]) [(radioactivity of 1-octanol layer [kBq])/(radioactivity of PBS layer [kBq])]” was used.

[3] = biological target: T1, CA-IX (Homo sapiens, UniProt Q16790); assay: Cell binding inhibition assay (acetazolamide as inhibitor, HT-29 cells); conditions: read-out: IC50 (nM, mean ± SD)
T1 construct: HT-29 cells (CA-IX highly expressing cells, purchased from Sumitomo Dainippon Pharma Co., Ltd.); host or cells: HT-29 cells
Protocol: In this evaluation, binding properties of [^111In]IS-DO2A-ALB1 to DO2A-ALB4 and [^111In]DO3A-IS1 with respect to CA-IX were evaluated.
Specifically, HT-29 cells (CA-IX highly expressing cells, purchased from Sumitomo Dainippon Pharma Co., Ltd.) were seeded together with a medium at 4.0×10^5 cells/well in a 12 well plate, and cultured at 37° C. for 24 hours in an atmosphere of 5% carbon dioxide.
Subsequently, the medium was removed, and a medium containing any one of the radioactive labeled compounds of Examples 1 to 4 and Comparative Example 1 (37 kBq/mL) was added to each well in an amount of 1 mL such that the acetazolamide concentration was 50000 to 0.00512 nM as an inhibitor, and the sample was cultured at 37° C. for two hours in an atmosphere of 5% carbon dioxide. In addition, a sample containing the radioactive labeled compound and not containing acetazolamide was also cultured under similar conditions. The experiment was performed with each concentration group at n=6.
Subsequently, the medium was removed, the residue was washed with PBS (1 mL), and cells were lysed with a 1 N sodium hydroxide aqueous solution (200 μL×2) to obtain a cell lysate. Then, the amount of radioactivity in the cell lysate and that in the medium containing the radioactive labeled compound were each measured with a gamma counter (type name: Wallac 2470 Wizard manufactured by PerkinElmer, Massachusetts, U.S.A.). Separately from this, the total protein mass (mg protein) in the cell lysate was quantified by a BCA method. […] Results are illustrated in Table 2 below as mean±standard deviation (mean±SD).
That is, the […] the calculated value of IC50, the higher affinity between the radioactive labeled compound and CA-IX.

[4] = tested on: HT-29 tumor-bearing mice; assay: In vivo radioactivity distribution assay in HT-29 tumor-bearing mice
Description: Under 2% isoflurane anesthesia, a suspension of HT-29 cells (5×10^6 cells/mouse) expressing CA-IX was subcutaneously injected into the left shoulder of each of 5-week-old male BALB/c nude mice (purchased from SHIMIZU Laboratory Supplies CO., LTD.). The composition of the suspension was a mixture of HT-29 cells/DMEM medium (manufactured by Thermo Fisher Scientific Inc.) and a matrix product (Geltrex (registered trademark) (manufactured by Thermo Fisher) at a volume ratio of 1:1.
Thereafter, the subcutaneously injected mice were raised for 14 days in a raising room that switches day and night every 12 hours with normal food and tap water to obtain HT-29 tumor-bearing mice.
Then, a saline solution (259 kBq, 100 μL, containing 3 mg of ascorbic acid) of each of the radioactive labeled compounds of Examples 1 to 3 or a saline solution (259 kBq, 100 μL, containing 1 mg of ascorbic acid) of the radioactive labeled compound of Comparative Example 1 was injected into each of the mice via the tail vein thereof. The mice (n=5 in each group) were euthanized 1, 4, 8, 24, 48, 96, or 192 hours after the injection, blood, organs, and tumor sites were collected, and the masses thereof were measured. The amount of radioactivity was measured with a gamma counter.
(§1) The degree of accumulation of the radioactive labeled compound is indicated as a value (% injected dose/g) obtained by dividing the percentage (% ID) of the amount of radioactivity with respect to the amount of injected radioactivity (injected dose) by the mass of blood or the mass of an organ (g). […] Results are illustrated in FIG. 1.

[5] = tested on: MDA-MB-231 tumor-bearing mice; assay: In vivo radioactivity distribution assay in MDA-MB-231 tumor-bearing mice; conditions: 24 hours after injection
Protocol: In a similar manner to Evaluation 3, a suspension of MDA-MB-231 cells (1×10^7 cells/mouse) having low expression of CA-IX was subcutaneously injected into the left shoulder of each of 5-week-old male BALB/c nude mice to obtain MDA-MB-231 tumor-bearing mice.
Then, a saline solution (40 kBq, 100 μL, containing 3 mg of ascorbic acid) of the radioactive labeled compound of Example 1 was injected into each of the mice via the tail vein thereof. Mice (n=5 in each group) were euthanized 24 hours after the injection, blood, organs, and tumor sites were collected, and the masses thereof were measured. The amount of radioactivity was measured with a gamma counter.
as §1, with “ID/g)” for “injected dose/g)”, “Table 3 as mean±standard deviation (n=5).” for “FIG. 1.”

[6] = tested on: LNCaP tumor transplanted mice; assay: Suppression of tumor growth by 225Ac-labeled compound; assay type: in vivo; conditions: 20 kBq i.v., FIG. 9
Protocol: [^225Ac]Ac-PSMA-DA1 (20 kBq) or [^225Ac]Ac-PSMA-DB (20 kBq) obtained by the above-described method was dissolved in a 5% ethanol-containing acetate buffer (158 mM, pH 6.5, 100 μL), and the solution was injected into each of the LNCaP tumor transplanted mice via the tail vein thereof (n=6 or 5). As a control group, 100 μL of 5% ethanol-containing acetate buffer (158 mM, pH 6.5) was injected into each of the LNCaP tumor transplanted mice via the tail vein thereof (n=4).
After the injection of the ^225Ac-labeled compound, a tumor volume and a body weight were measured three times per week. The tumor volumes on the start day of injection of the ^225Ac-labeled compound were 75.3±26.0, 80.6±20.8, and 91.1±15.9 mm^3 in the [^225Ac]Ac-PSMA-DA1 injection group, the [^225Ac]Ac-PSMA-DB injection group, and the 5% ethanol-containing acetate buffer injection group, respectively.

[7] = IC50 of inhibitor acetazolamide against binding of the radioactive labeled compound to HT-29 cells, 2 h, larger value = higher affinity of labeled compound for CA-IX

SMILES: O=C([O-])CN1CCN(C(CCC(=O)NCCCC[C@H](NC(=O)N[C@@H](CCC(=O)O)C(=O)O)C(=O)O)C(=O)[O-])CCN(CC(=O)[O-])CCN(C(CCC(=O)Nc2ccccc2)C(=O)[O-])CC1.[90Y+3] (stereo partly shown) [[^90Y]Y-PSMA-DB]
- Time after injection at which a significant difference in tumor volume vs saline group was observed [1]: ≥ 33 days

- Distribution coefficient (mean ± SD) [2]: −3.72 ± 0.05
- IC50 [3]: 127 ± 19.6 nM
SMILES: NS(=O)(=O)c1nn2cc(-c3ccc(NC(=O)CN4CCN(CC(=O)O)CCN(CC(=O)O)CCN(CC(=O)O)CC4)cc3)nc2s1 [[^111In]DO3A-IS1, metal not drawn]

- Amount accumulated in the tumor expressing CA-IX (in words) ([4]; FIG. 1, HT-29 tumor): poor
SMILES: NS(=O)(=O)c1nn2cc(-c3ccc(NC(=O)CN4CCN(CC(=O)[O-])CCN(CC(=O)[O-])CCN(CC(=O)[O-])CC4)cc3)nc2s1.[111In+3] [[^111In]DO3A-IS1]
- Amount accumulated in the kidney (in words) ([4]; FIG. 1): very large as compared with the results of Examples

- Distribution coefficient (mean ± SD) [2]: −1.70 ± 0.01
- IC50 [3, 7]: 571.4 ± 2.6 nM
- Accumulation in the HT-29 tumor ([4]; value of Evaluation 3 quoted for comparison with Table 3): 10.73 % ID/g
- Radioactivity accumulated amount: Blood [5]: 5.50 ± 1.17 % ID/g
- Radioactivity accumulated amount: Brain [5]: 0.34 ± 0.03 % ID/g
- Radioactivity accumulated amount: Heart [5]: 3.12 ± 0.25 % ID/g
- Radioactivity accumulated amount: Intestinal [5]: 4.65 ± 0.48 % ID/g
- Radioactivity accumulated amount: Kidney [5]: 11.42 ± 0.65 % ID/g
- Radioactivity accumulated amount: Liver [5]: 2.64 ± 0.47 % ID/g
- Radioactivity accumulated amount: Lung [5]: 7.28 ± 0.85 % ID/g
- Radioactivity accumulated amount: Muscle [5]: 1.21 ± 0.22 % ID/g
- Radioactivity accumulated amount: Pancreas [5]: 2.27 ± 0.30 % ID/g
- Radioactivity accumulated amount: Spleen [5]: 2.04 ± 0.45 % ID/g
- Radioactivity accumulated amount: Stomach [5]: 4.44 ± 0.48 % ID
- Radioactivity accumulated amount: Tumor (MDA-MB-231) [5]: 5.05 ± 0.59 % ID/g
- Tumor/blood radioactivity ratio [5]: 0.94 ± 0.17
- Tumor/kidney radioactivity ratio [5]: 0.44 ± 0.05
- Tumor/muscle radioactivity ratio [5]: 4.22 ± 0.47
SMILES: NS(=O)(=O)c1nn2cc(-c3ccc(NC(=O)CN4CCN(CC(=O)O)CCN(CC(=O)N[C@@H](CCCCNC(=O)CCCc5ccc(I)cc5)C(=O)O)CCN(CC(=O)O)CC4)cc3)nc2s1.[111In+3] [[^111In]IS-DO2A-ALB1]

- Distribution coefficient (mean ± SD) [2]: −2.16 ± 0.04
- IC50 [3, 7]: 165 ± 60.6 nM
SMILES: Cc1ccc(CCCC(=O)NCCCC[C@H](NC(=O)CN2CCN(CC(=O)O)CCN(CC(=O)Nc3ccc(-c4cn5nc(S(N)(=O)=O)sc5n4)cc3)CCN(CC(=O)O)CC2)C(=O)O)cc1.[111In+3] [[^111In]IS-DO2A-ALB2, [^111In] indium(III) (S)-2,2′-(4-(2-((1-carboxy-5-(4-(4-tolyl)butanamide)pentyl)amino)-2-oxoethyl)-10-(2-oxo-2-((4-(2-sulfamoylimidazo[2,1-b][1,3,4]thiadiazol-6-yl)phenyl)amino)ethyl)-1,4,7,10-tetraazacyclododecane-1,7-diyl) diacetic acid]

- Distribution coefficient (mean ± SD) [2]: −1.90 ± 0.01
- IC50 [3, 7]: 288 ± 45.7 nM
SMILES: NS(=O)(=O)c1nn2cc(-c3ccc(NC(=O)CN4CCN(CC(=O)O)CCN(CC(=O)N[C@@H](CCCCNC(=O)CCCc5ccc(Br)cc5)C(=O)O)CCN(CC(=O)O)CC4)cc3)nc2s1.[111In+3] [[^111In]IS-DO2A-ALB3]

- Distribution coefficient (mean ± SD) [2]: −2.36 ± 0.01
- IC50 [3, 7]: 105 ± 8 nM
SMILES: NS(=O)(=O)c1nn2cc(-c3ccc(NC(=O)CN4CCN(CC(=O)O)CCN(CC(=O)N[C@@H](CCCCNC(=O)CCCc5ccccc5)C(=O)O)CCN(CC(=O)O)CC4)cc3)nc2s1.[111In+3] [[^111In]IS-DO2A-ALB4, [^111In] indium(III) (S)-2,2′-(−(2-((1-carboxy-5-(4-phenylbutanamide)pentyl)amino)-2-oxoethyl)-10-(2-oxo-2-((4-(2-sulfamoylimidazo[2,1-b][1,3,4]thiadiazol-6-yl)phenyl)amino)ethyl)-1,4,7,10-tetraazacyclododecane-1,7-diyl) diacetic acid]

SMILES: O=C([O-])CN1CCN(C(CCC(=O)NCCCC[C@H](NC(=O)N[C@@H](CCC(=O)O)C(=O)O)C(=O)O)C(=O)[O-])CCN(CC(=O)[O-])CCN(C(CCC(=O)N[C@@H](CCCCNC(=O)CCCc2ccc(I)cc2)C(=O)O)C(=O)[O-])CC1.[225Ac+3] (stereo partly shown) [[^225Ac]Ac-PSMA-DA1]
- Course of tumor growth (in words) [6]: the tumor hardly grew, and continuous growth suppression was observed up to six weeks after the injection
- Decrease in body weight (in words) [6]: transient
- Tumor growth compared with control group (in words) [6]: tumor growth was significantly suppressed

SMILES: O=C([O-])CN1CCN(C(CCC(=O)NCCCC[C@H](NC(=O)N[C@@H](CCC(=O)O)C(=O)O)C(=O)O)C(=O)[O-])CCN(CC(=O)[O-])CCN(C(CCC(=O)Nc2ccccc2)C(=O)[O-])CC1.[225Ac+3] (stereo partly shown) [[^225Ac]Ac-PSMA-DB]
- Decrease in body weight (in words) [6]: temporarily accelerated, but there was no sign of recovery thereafter
- Tumor growth compared with control group (in words) [6]: tumor growth was significantly suppressed
